The results in this text go back to ChEMBL document CHEMBL1152560, “Substituted 2-arylbenzothiazoles as kinase inhibitors: hit-to-lead optimization” (Bioorg Med Chem, 2009).

The target in assay [1] is Tyrosine-protein kinase Fgr (Homo sapiens) (UniProt P09769). Description: Residual activity of FGR at 1 uM by microplate scintillation counting.
Assay [2] addresses T1, Tyrosine-protein kinase JAK3 (Homo sapiens) (UniProt P52333).
T1 sequence (whole entry): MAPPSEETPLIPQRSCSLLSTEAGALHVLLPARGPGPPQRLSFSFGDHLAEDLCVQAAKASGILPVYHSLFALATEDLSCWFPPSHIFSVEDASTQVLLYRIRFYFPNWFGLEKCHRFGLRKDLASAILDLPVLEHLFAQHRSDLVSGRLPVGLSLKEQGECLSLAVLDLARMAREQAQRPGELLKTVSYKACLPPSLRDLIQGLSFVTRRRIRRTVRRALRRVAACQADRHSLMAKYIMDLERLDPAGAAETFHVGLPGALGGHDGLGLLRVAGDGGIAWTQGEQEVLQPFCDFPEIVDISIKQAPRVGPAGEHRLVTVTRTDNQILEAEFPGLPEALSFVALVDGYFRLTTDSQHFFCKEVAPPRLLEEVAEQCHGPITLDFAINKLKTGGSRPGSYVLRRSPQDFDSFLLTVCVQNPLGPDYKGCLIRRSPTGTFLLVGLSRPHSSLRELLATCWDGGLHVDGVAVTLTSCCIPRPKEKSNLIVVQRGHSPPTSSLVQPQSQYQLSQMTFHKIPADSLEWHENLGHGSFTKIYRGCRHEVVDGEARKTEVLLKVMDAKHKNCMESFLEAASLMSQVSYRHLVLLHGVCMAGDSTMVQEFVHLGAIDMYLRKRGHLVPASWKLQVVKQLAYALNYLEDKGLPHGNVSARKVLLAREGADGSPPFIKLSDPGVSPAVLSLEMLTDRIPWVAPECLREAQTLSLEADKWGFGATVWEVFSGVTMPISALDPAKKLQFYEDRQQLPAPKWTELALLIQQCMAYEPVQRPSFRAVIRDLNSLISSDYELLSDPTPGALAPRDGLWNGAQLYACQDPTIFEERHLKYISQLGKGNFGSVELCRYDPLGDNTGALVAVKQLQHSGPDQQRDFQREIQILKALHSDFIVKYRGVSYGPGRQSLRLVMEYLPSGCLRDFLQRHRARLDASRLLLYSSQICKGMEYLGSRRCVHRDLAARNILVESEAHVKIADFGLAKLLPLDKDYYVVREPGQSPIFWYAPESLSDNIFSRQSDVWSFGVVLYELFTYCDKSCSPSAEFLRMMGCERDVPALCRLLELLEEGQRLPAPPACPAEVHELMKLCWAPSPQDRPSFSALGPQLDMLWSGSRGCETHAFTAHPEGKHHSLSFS
The experiment in a line: Residual activity of JAK3 at 1 uM by microplate scintillation counting.

The target in assay [3] is Death-associated protein kinase 3 (Homo sapiens) (UniProt O43293). The experiment in a line: Residual activity of DAPK3 at 10 uM by microplate scintillation counting.
The target of assay [4] is T2, Discoidin domain-containing receptor 2 (Homo sapiens) (UniProt Q16832).
T2 sequence (whole entry): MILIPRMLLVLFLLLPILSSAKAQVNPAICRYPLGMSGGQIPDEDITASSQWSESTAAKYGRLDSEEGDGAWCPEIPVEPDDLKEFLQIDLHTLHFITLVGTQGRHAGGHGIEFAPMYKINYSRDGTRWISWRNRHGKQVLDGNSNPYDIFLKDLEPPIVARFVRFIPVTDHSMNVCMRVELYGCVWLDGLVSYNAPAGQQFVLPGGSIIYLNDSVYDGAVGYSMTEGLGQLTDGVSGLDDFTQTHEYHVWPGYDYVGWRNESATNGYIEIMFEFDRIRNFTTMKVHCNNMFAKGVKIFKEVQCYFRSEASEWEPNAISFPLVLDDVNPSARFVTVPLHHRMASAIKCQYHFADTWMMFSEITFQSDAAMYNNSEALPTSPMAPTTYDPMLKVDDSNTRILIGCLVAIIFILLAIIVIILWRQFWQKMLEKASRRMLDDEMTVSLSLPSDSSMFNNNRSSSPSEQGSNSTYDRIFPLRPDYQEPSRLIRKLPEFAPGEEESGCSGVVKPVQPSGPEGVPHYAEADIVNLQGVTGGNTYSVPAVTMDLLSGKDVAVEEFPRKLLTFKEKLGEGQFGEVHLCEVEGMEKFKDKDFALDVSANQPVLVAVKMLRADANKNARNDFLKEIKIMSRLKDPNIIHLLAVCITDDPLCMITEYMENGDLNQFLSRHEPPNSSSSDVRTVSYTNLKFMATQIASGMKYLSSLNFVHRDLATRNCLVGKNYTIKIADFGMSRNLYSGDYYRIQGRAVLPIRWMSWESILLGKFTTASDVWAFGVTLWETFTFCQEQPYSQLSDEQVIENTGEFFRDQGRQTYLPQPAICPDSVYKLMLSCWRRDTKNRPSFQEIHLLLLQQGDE
Description: Residual activity of DDR2 at 10 uM by microplate scintillation counting.

Assay [5] addresses Mitogen-activated protein kinase 9 (Homo sapiens) (UniProt P45984). The experiment in a line: Residual activity of JNK2 at 10 uM by microplate scintillation counting.
For assay [6], the target named is Serine/threonine-protein kinase MRCK beta (Homo sapiens) (UniProt Q9Y5S2). The experiment in a line: Residual activity of CDC42BPB at 1 uM by microplate scintillation counting.
Assay [7] deals with Calcium/calmodulin-dependent protein kinase type II subunit delta (Homo sapiens) (UniProt Q13557). Description: Residual activity of CAMK2D at 0.1 uM by microplate scintillation counting.

The structures appear in SMILES notation.

Chain of Calcium/calmodulin-dependent protein kinase type II subunit delta (Homo sapiens) (Q13557 whole entry): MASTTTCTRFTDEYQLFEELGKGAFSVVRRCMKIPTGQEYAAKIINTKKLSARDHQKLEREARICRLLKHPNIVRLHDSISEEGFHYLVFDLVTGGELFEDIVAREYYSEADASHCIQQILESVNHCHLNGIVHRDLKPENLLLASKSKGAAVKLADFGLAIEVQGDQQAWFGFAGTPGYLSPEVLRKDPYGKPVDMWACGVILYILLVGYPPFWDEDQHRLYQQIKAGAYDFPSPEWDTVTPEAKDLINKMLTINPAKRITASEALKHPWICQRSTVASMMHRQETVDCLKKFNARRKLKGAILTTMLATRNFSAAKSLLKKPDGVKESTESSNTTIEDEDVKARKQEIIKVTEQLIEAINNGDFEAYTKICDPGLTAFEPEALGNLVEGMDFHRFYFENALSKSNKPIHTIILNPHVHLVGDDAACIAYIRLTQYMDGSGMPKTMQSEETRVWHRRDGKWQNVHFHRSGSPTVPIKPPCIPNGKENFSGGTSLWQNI
Chain of Death-associated protein kinase 3 (Homo sapiens) (O43293 whole entry, looked up, the tested form may be a part): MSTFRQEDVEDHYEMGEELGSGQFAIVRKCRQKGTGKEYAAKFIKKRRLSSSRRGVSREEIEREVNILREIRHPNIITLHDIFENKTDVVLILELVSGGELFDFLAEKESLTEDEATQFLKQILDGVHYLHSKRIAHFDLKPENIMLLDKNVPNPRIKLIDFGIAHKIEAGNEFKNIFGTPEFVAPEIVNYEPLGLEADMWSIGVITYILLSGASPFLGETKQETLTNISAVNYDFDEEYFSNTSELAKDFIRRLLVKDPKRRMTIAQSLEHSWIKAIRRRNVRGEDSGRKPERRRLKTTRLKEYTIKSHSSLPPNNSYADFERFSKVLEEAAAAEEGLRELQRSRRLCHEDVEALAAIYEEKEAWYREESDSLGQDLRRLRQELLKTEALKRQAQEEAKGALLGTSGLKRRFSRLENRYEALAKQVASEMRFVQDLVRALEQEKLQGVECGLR
Chain of Serine/threonine-protein kinase MRCK beta (Homo sapiens) (Q9Y5S2 whole entry): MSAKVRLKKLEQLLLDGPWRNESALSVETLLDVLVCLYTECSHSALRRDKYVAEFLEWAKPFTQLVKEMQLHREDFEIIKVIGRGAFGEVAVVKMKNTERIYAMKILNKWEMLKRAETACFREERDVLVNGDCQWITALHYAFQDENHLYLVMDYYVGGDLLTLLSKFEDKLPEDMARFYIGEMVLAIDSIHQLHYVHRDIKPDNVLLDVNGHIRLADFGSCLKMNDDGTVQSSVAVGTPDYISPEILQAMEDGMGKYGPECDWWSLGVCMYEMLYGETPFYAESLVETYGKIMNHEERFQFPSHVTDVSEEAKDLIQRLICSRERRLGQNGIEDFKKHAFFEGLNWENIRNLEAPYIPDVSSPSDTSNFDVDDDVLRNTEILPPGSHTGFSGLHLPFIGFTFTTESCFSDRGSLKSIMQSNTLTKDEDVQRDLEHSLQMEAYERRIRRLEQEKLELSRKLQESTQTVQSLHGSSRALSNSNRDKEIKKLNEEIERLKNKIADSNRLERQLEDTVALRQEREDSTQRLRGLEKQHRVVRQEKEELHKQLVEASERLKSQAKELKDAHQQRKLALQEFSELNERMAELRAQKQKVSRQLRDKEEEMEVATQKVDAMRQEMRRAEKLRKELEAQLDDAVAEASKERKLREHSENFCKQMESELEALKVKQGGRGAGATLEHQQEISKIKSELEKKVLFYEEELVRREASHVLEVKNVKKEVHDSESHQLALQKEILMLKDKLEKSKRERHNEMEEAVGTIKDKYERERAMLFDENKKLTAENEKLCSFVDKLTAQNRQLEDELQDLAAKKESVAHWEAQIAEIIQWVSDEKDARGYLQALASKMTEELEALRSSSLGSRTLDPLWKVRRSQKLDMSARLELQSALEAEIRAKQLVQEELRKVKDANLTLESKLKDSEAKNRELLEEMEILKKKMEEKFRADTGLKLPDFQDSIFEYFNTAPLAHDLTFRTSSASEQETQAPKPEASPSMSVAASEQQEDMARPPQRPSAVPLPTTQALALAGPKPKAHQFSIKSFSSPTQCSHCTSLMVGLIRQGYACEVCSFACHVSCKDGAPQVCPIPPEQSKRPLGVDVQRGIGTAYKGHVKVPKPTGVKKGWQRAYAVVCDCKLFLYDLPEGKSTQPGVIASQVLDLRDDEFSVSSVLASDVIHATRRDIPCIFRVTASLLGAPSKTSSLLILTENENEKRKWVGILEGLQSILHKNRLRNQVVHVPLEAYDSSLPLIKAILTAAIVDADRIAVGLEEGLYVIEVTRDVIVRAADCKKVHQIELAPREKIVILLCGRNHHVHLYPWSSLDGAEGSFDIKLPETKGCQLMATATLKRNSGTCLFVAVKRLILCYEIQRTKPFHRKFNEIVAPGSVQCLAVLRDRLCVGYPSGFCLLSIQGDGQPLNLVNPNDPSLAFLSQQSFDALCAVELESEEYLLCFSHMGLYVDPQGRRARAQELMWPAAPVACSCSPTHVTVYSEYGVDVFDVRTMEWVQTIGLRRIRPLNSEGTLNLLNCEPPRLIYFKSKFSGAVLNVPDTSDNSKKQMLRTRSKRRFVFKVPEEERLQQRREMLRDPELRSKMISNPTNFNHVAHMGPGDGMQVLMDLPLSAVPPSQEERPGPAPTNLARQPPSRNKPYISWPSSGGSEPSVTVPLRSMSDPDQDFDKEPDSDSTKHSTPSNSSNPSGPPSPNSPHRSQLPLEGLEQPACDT
Chain of Tyrosine-protein kinase Fgr (Homo sapiens) (P09769 2-529 limits assumed): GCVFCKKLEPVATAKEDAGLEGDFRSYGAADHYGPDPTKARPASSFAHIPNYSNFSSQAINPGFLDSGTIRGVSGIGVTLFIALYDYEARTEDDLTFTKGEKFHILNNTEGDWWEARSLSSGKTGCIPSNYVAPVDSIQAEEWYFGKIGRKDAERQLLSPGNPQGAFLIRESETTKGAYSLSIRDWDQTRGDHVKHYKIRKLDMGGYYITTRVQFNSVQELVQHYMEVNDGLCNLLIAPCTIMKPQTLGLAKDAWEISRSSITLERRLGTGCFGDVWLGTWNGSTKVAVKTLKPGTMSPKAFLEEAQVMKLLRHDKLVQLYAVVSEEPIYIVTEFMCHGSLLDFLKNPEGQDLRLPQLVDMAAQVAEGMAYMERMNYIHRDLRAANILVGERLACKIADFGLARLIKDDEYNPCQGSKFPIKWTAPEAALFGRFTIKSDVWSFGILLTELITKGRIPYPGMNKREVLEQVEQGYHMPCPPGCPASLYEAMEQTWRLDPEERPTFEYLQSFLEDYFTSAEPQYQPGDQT
Chain of Mitogen-activated protein kinase 9 (Homo sapiens) (P45984 whole entry, looked up): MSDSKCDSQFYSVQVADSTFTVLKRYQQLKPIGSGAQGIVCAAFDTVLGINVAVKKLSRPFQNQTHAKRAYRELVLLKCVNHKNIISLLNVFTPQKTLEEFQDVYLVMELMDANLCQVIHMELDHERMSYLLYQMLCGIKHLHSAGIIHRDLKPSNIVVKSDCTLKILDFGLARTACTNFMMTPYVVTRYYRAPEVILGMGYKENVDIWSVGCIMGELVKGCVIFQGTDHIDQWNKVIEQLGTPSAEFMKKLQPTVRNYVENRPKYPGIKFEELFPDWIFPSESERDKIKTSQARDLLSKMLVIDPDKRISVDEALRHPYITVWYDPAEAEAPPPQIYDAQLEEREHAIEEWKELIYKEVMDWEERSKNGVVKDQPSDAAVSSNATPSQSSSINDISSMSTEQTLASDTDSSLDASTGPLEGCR

Regarding `COc1cc2c(Oc3ccc(-c4nc5ccccc5s4)cc3)ncnc2cc1OCCCN1CCN(C)CC1`, the residual activity in assay [1] was determined as 101%; in assay [2] it was 101%; in assay [3], 96%; in assay [4], 25%; in assay [5], 96%; in assay [6], 100%. Moreover, in assay [7], the residual activity was determined as 92%.
On to `COc1cc2c(Oc3ccc(-c4nc5ccccc5s4)cc3)ncnc2cc1OCCCN1CCCC1`, for which the residual activity in assay [1] amounted to 94%; in assay [2], 93%; in assay [3], 90%; in assay [4], 42%; in assay [5] it was 93%; in assay [6] it was 99%. The residual activity in assay [7] is 87%.
In the case of `COc1cc2c(Oc3ccc(-c4nc5ccccc5s4)cc3F)ncnc2cc1OCCCN1CCN(C)CC1`, the residual activity in assay [1] stood at 91%; in assay [2], 92%; in assay [3], 89%; in assay [4], 30%; in assay [5] it was 122%; in assay [6], 90%. In addition, the residual activity in assay [7] turned out to be 105%.
